Columns and labels:
human recombinant PDE5 = biological target: T1, human recombinant PDE5 (Homo sapiens, UniProt O76074); test: Inhibitory effect on cGMP-PDE (PDE5 IC50, one-step assay); type: biochemical; conditions: in vitro, 0.15 μM 8-[H3]-cGMP, 30 minutes incubation
T1 construct: host or cells: Saccharomyces cerevisiae strain BJ2-54 (ATCC 74465), described as an exemplary method
Description: The compounds of structural formula (I) were tested for an ability to inhibit PDE5. The ability of a compound to inhibit PDE5 activity is related to the IC50 value for the compound, i.e., the concentration of inhibitor required for 50% inhibition of enzyme activity. The IC50 value for compounds of structural formula (I) were determined using recombinant human PDE5.
cGMP-PDE activity of compounds of the present invention was measured using a one-step assay adapted from Wells et al., Biochim. Biophys. Acta, 384, 430 (1975). The reaction medium contained 50 mM Tris-HCl, pH 7.5, 5 mM magnesium acetate, 250 μg/ml 5′-Nucleotidase, 1 mM EGTA, and 0.15 μM 8-[H^3]-cGMP. Unless otherwise indicated, the enzyme used was a human recombinant PDE5 (ICOS Corp., Bothell, Wash.).
Compounds of the invention were dissolved in DMSO finally present at 2% in the assay.

Structure (SMILES)	IC50 (human recombinant PDE5) [nM]	melting point [°C]
CCCCN1C(=O)[C@@H]2Cc3c([nH]c4ccccc34)[C@H](c3ccc(OC)cc3)N2C1=S (racemic) [Example 7, (+−, trans)-2-Butyl-10-(4-methoxyphenyl)-1-thioxo-1,2,3a,4,9,10-hexahydro-2,9,10a-triazacyclopenta-[b]fluoren-3-one]	20	
CN1C[C@@H]2Cc3c([nH]c4ccccc34)[C@H](c3ccc4c(c3)OCO4)N2C1=O (racemic) [Example 11, (+−, cis)-10-Benzo[1,3]dioxol-5-yl-2-methyl-2,3,3a,4,9,10-hexahydro-2,9,10a-triazacyclopenta[b]fluoren-1-one]	60	
COc1ccc([C@@H]2c3[nH]c4ccccc4c3C[C@H]3C(=O)N(Cc4ccccc4)CN23)cc1 (racemic) [Example 12, (+−, cis)-2-Benzyl-10-(4-methoxyphenyl)-1,2,3a,4,9,10-hexahydro-2,9,10a-triazacyclopenta[b]fluoren-3-one]	60	
O=C1CCN2[C@H](c3ccc4c(c3)OCO4)c3[nH]c4ccccc4c3C[C@H]12 (racemic) [Example 14, (+−, trans)-5-Benzo[1,3]dioxol-5-yl,2,3,5,6,11,11a-hexahydro-indolizino[6,7-b]indol-1-one]	390	
O=C1OC(=O)N2[C@H](c3ccc4c(c3)OCO4)c3[nH]c4ccccc4c3C[C@H]12 [Example 1, (3aR,10R)-(+)-10-Benzo[1,3]dioxol-5-yl-3a,4,9,10-tetrahydro-2-oxa-9,10a-diaza-cyclopenta[β]fluorene-1,3-dione]	205	197 to 202
O=C1CC(=O)N2C1Cc1c([nH]c3ccccc13)C2c1ccc2c(c1)OCO2 (centres unmarked) [Example 9, 5-Benzo[1,3]dioxol-5-yl-5,6,11,11a-tetrahydroindolizino[6,7-b]indole-1,3-dione]	200	
O=C1OCC2Cc3c([nH]c4ccccc34)C(c3ccc4c(c3)OCO4)N12 (centres unmarked) [Example 13, 10-Benzo[1,3]dioxol-5-yl-3a,4,9,10-tetrahydro-3H-2-oxa-9,10a-diazacyclopenta[b]fluoren-1-one]	70	
O=S1OCC2Cc3c([nH]c4ccccc34)C(c3ccc4c(c3)OCO4)N21 (centres unmarked) [Example 15, 10-Benzo[1,3]dioxol-5-yl-3a,4,9,10-tetrahydro-3H-2-oxa-1-thia-9,10a-diazacyclopenta[b]fluorene-1-oxide]	20	

Results, then the molecule that gave them:

IC50 (human recombinant PDE5) [nM]	melting point [°C]	Structure (SMILES)
53		O=C1OC(=S)N2[C@H](c3ccc4c(c3)OCO4)c3[nH]c4ccccc4c3C[C@H]12 [Example 3, (3aR,10R)-10-Benzo[1,3]dioxol-5-yl-1-thioxo3a,4,9,10-tetrahydro-2-oxa-9,10a-diaza-cyclopenta[β]fluoren-3-one]
12	168 to 174	CN1C(=O)N2[C@H](c3ccc4c(c3)OCO4)c3[nH]c4ccccc4c3C[C@H]2C1=S [Example 5, (3aS,10R)-10-Benzo(1,3)dioxol-5-yl-2-methyl-3-thioxo-2,3,3a,4,9,10-hexahydro-2,9,10a-triazacyclopenta[b]fluoren-1-one]
12	234 to 236	CN1C(=O)[C@@H]2Cc3c([nH]c4ccccc34)[C@@H](c3ccc4c(c3)OCO4)N2C1=S [Example 6, (3aS,10R)-10-Benzo(1,3)dioxol-5-yl-2-methyl-1-thioxo-1,2,3a,4,9,10-hexahydro-2,9,10a-triazacyclopenta[b]fluoren-3-one]

— patent publication US6858620B2, “Condensed pyridoindole derivatives” (Lilly ICOS, LLC, priority 2000, dated 2005)
